Values of other authors as cited in patent US11564958B2, “Compositions and methods of treatment of Ehlers-Danlos syndromes” (RESOLYS BIO, INC., priority 2017, dated 2023).

Test system: rheumatoid arthritis
Conditions: reported in U.S. Pat. No. 4,704,273

SMILES: NCCc1c[nH]cn1 [histamine, 4-(2-aminoethyl)-imidazole]
- usefulness in alleviating symptoms of rheumatoid arthritis: not be useful
